Measurements reported in patent US11814407B2, “Multiple coupling and oxidation method” (Roche Innovation Center Copenhagen A/S, priority 2017, dated 2023).
Entries after “also recorded” stand apart in the source; their conditions may differ.

Assays:
[1] = Solubility of oxazaphospholidine phosphoramidite monomers in solvent, visual examination; assay type: physicochemical; conditions: for Solubility over 24 hours in MeCN with addition of pyridine: MeCN + 2.5% pyridine; for Solubility after 24 hours in MeCN: MeCN alone
Description: To a 1.5 mL vial was added 0.013 mmol of amidite after which the solid material was dissolved in 0.13 mL of solvent. Hereafter, the vial was capped, vortexed, and finally left at room temperature for 24 hours. Then, the dissolved material was visually examined regarding the solubility (FIG. 1). If the solution appeared cloudy or otherwise non-homogenous the solubility was set to “no”. If the solution appeared completely homogenous the solubility was set to “yes” (examination repeated after 24 hours).
Solubility of the following monomers was determined as per example 7.

[2] = Stability of amidite solutions by HPLC-MS (UV 254 nm, normalised to 0 hours); assay type: physicochemical
Description: Stability Determination Method: To complete the analysis the stability of the amidite was investigated using an Agilent 1100 series HPLC-MS with a gradient from 80% A (1% NH4OH in H2O) to 100% B (20% A in MeCN) and a Waters Xterra MS C18 2.1×100 mm column. The mass and UV peak of the mother compound was identified at 0 hours and at 24 hours. Hereafter, the relative stability compared to other by-products was reported by integrating the UV chromatogram (254 nm) and normalizing the area to the chromatogram recorded at 0 hours (FIG. 2).
To a 1.5 mL vial was added 0.013 mmol of amidite after which the solid material was dissolved in 0.13 mL of solvent (with and without Et3N, approximately 5-10 eq). Hereafter, the vial was capped, vortexed, and finally left at room temperature for 24 hours. To investigate the stability of the amidite an Agilent 1100 series HPLC-MS with a gradient from 80% A (1% NH4OH in H2O) to 100% B (20% A in MeCN) and a Waters Xterra MS C18 2.1×100 mm column was used. The mass and UV peak of the mother compound was identified at 0 hours and at 24 hours. Hereafter, the relative stability compared to other by-products was reported. This was again repeated after 48 hours.

COc1ccc(C(OCC2OC(n3cnc4c(NC(=O)c5ccccc5)ncnc43)CC2OP2OC(c3ccccc3)C3CCCN32)(c2ccccc2)c2ccc(OC)cc2)cc1 [D-DNA A]
Solubility over 24 hours in MeCN with addition of pyridine [1]: the solubility of the monomer is preserved
Solubility after 24 hours in MeCN [1]: not soluble

COc1ccc(C(OCC23COC(C(n4cnc5c(NC(=O)c6ccccc6)ncnc54)O2)C3OP2OC(c3ccccc3)C3CCCN32)(c2ccccc2)c2ccc(OC)cc2)cc1 [D-LNA A]
Solubility over 24 hours in MeCN with addition of pyridine [1]: the solubility of the monomer is preserved
Solubility after 24 hours in MeCN [1]: not soluble

COc1ccc(C(OCC2OC(n3cnc4c(NC(=O)c5ccccc5)ncnc43)CC2OP2OC(c3ccccc3)C3CCCN32)(c2ccccc2)c2ccc(OC)cc2)cc1 [L-DNA A]
Solubility over 24 hours in MeCN with addition of pyridine [1]: kept in solution; also recorded: the solubility of the monomer is preserved
Solubility after 24 hours in MeCN [1]: not sufficient to keep the monomer in solution; also recorded: not soluble

COc1ccc(C(OCC23COC(C(n4cnc5c(NC(=O)c6ccccc6)ncnc54)O2)C3OP2OC(c3ccccc3)C3CCCN32)(c2ccccc2)c2ccc(OC)cc2)cc1 [L-LNA A]
Stability in solution ([2]; MeCN + Et3N (approximately 5-10 eq), after 24 hours): completely stable
Stability in solution ([2]; MeCN + Et3N (approximately 5-10 eq), after 48 hours): the majority of the L-LNA A is preserved
Stability in solution ([2]; MeCN only, after 24 hours, room temperature): most of the L-LNA A was degraded
Stability in solution ([2]; MeCN only, after 48 hours, room temperature): completely degraded

COc1ccc(C(OCC23COC(C(n4cnc5c(=O)[nH]c(N=CN(C)C)nc54)O2)C3OP2OC(c3ccccc3)C3CCCN32)(c2ccccc2)c2ccc(OC)cc2)cc1 [L-LNA G-DMF]
Solubility in solvents ([1]; MeCN, MeCN:DCE, MeCN:Tol, MeCN:acetone, Dioxane, THF): unsoluble
Solubility in solvents ([1]; MeCN:DCM, DMF, DMSO, NMP, DCM, DCE, Toluene): soluble
Solubility in acetonitrile solvents ([1]; acetonitrile solvents): poorly soluble
Amidite left after 24 hours ([2]; DCM (best solvent), 24 hours, room temperature): 10%
Stability in the solvents where the monomer is soluble ([2]; MeCN:DCM, DMF, DMSO, NMP, DCM, DCE, Toluene, 24 hours): tremendous instability

COc1ccc(C(OC[C@@]23CO[C@@H]([C@H](n4cnc5c(=O)[nH]c(NC(=O)C(C)C)nc54)O2)[C@@H]3O[P@]2O[C@H](c3ccccc3)[C@@H]3CCCN32)(c2ccccc2)c2ccc(OC)cc2)cc1 [L-LNA-G-iBu]
Solubility in all solvents investigated ([1]; 12 different solvents): soluble in all solvents investigated
Soluble after: 24 h MeCN ([1]; 24 h, MeCN, 0.013 mmol amidite in 0.13 mL solvent, room temperature): no
